In patent publication US20210317092A1 (BAYER PHARMA AKTIENGESELLSCHAFT, priority 2016, published 2021):
Read-outs that look alike come from different tables or passages of the source.

Biological target: T1, human Bradykinin B1 receptor (Homo sapiens, UniProt P46663)
T1 construct: host or cells: CHO-K1
T1 sequence (P46663 1-353): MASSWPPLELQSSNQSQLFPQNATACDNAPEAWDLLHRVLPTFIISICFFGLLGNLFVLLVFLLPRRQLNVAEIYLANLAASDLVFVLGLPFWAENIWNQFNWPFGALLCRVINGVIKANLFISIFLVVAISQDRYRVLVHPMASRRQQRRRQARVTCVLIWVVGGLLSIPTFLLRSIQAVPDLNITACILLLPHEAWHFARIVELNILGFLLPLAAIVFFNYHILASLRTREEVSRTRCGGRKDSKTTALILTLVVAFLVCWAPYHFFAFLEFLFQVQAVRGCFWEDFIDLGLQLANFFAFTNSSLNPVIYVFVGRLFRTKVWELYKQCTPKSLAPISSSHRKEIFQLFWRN
Test: Calcium flux Assay (FLIPR) with recombinant CHO-K1 cells expressing human Bradykinin B1 receptor, in presence (hB1 IC50) or absence (hB1 free IC50) of 0.1% BSA
Type: cell-based

[1] = in presence of 0.1% BSA, read-out: hB1 IC50
[2] = in absence of 0.1% BSA, read-out: hB1 free IC50

| SMILES | IC50 [1] [nM] | IC50 [2] [nM] |
| --- | --- | --- |
| COc1ccc(-c2ccc(NC(=O)C3(c4ccccc4)CC3(C)C)cc2-c2nnn[nH]2)cc1OC (stereo not shown) [Example 7, N-[3′,4′-dimethoxy-2-(1H-tetrazol-5-yl)biphenyl-4-yl]-2,2-dimethyl-1-phenylcyclo-propane-carboxamide] | 1350 | – |
| COc1ccc(-c2ccc(NC(=O)C3(c4ccc(C)cc4)CC3(C)C)cc2-c2nnn[nH]2)cc1OC (stereo not shown) [Example 5, N-[3′,4′-dimethoxy-2-(1H-tetrazol-5-yl)biphenyl-4-yl]-2,2-dimethyl-1-(4-methylpheny) cyclopropane carboxamide] | 1510 | – |
| COc1ccc(-c2ccc(NC(=O)C3(c4ccc(C(F)(F)F)cc4F)CC3)cc2-c2nnn[nH]2)cc1OC [Example 20, N-[3′,4′-dimethoxy-2-(1H-tetrazol-5-yl)biphenyl-4-yl]-1-[2-fluoro-4-(trifluoromethyl)phenyl] cyclopropane-carboxamide] | 54.4 | 29.2 |
| CCc1ccn(-c2ccc(NC(=O)C3(c4ccc(OC(F)(F)F)cc4F)CC3)cc2-c2nnn[nH]2)n1 [Example 373, N-[4-(3-Ethyl-1H-pyrazol-1-yl)-3-(1H-tetrazol-5-yl)phenyl]-1-[2-fluoro-4-(trifluoromethoxy)phenyl]cyclo-propanecarboxa-mide] | – | 24.2 |
| O=C(Nc1ccc(-c2ccc(C(F)F)nc2)c(-c2nnn[nH]2)c1)C1(c2ccc(OC(F)(F)F)cc2)CC1 [Example 271, N-{4-[6-(difluoromethyl)pyridin-3-yl]-3-(1H-tetrazol-5-yl)phenyl}-1-[4-(trifluoromethoxy)phenyl]cyclo-propanecarboxa-mide] | – | 6.09 |
| O=C(Nc1ccc(-n2ccc(CC(F)(F)F)n2)c(-c2nnn[nH]2)c1)C1(c2cccc(Cl)c2)CC1 [Example 386, 1-(3-chlorophenyl)-N-{3-(1H-tetrazol-5-yl)-4-[3-(2,2,2-trifluoroethyl)-1H-pyrazol-1-yl]phenyl}cyclopro-panecarboxa-mide] | – | 146 |
| CCC(F)(F)c1ccc(-c2ccc(NC(=O)C3(c4ccc(C(F)(F)F)cc4F)CC3)cc2-c2nnn[nH]2)cn1 [Example 286, N-{4-[6-(1,1-difluoropropyl)py-ridin-3-yl]-3-(1H-tetrazol-5-yl)phenyl}-1-[2-fluoro-4-(trifluoromethyl)phenyl]cyclopro-panecarboxamide] | – | 4.34 |
| O=C(Nc1ccc(-c2cc3ccccc3s2)c(-c2nnn[nH]2)c1)C1(c2cccc(Cl)c2)CC1 [Example 383, N-[4-(1-benzothiophen-2-yl)-3-(1H-tetrazol-5-yl)phenyl]-1-(3-chlorophenyl)cyclo-propanecarbox-amide] | – | 142 |
| CCOc1ccc(-c2ccc(NC(=O)C3(c4cccc(CC)c4)CC3)cc2-c2nnn[nH]2)cn1 [Example 95, N-[4-(6-ethoxypyridin-3-yl)-3-(1H-tetrazol-5-yl)phenyl]-1-(3-ethylphenyl) cyclopropane-carboxamide] | 14.5 | 10.4 |
| O=C(Nc1ccc(-c2cc(F)ncc2F)c(-c2nnn[nH]2)c1)C1(c2ccc(C(F)(F)F)cc2F)CC1 [Example 167, N-[4-(2,5-difluoropyridin-4-yl)-3-(1H-tetrazol-5-yl)phenyl]-1-[2-fluoro-4-(trifluoromethyl)phenyl] cyclopropane-carboxamide] | – | 634 |
| COc1cc(-c2ccc(NC(=O)C3(c4cccc(Cl)c4)CC3)cc2-c2nnn[nH]2)ccn1 [Example 320, 1-(3-Chlorophenyl)-N-[4-(2-methoxypyridin-4-yl)-3-(1H-tetrazol-5-yl)phenyl]cyclopro-panecarboxa-mide] | 208 | – |
| COc1cc(-c2ccc(NC(=O)C3(c4ccc(C(F)(F)F)cc4F)CC3)cc2-c2nnn[nH]2)cc(C(F)(F)F)c1 [Example 133, 1-[2-fluoro-4-(trifluoromethyl)phenyl]-N-[3′-methoxy-2-(1H-tetrazol-5-yl)-5′-(trifluoromethyl)biphenyl-4-yl]cyclopropane carboxamide] | – | 217 |
| O=C(Nc1ccc(-n2cc(C(F)F)cn2)c(-c2nnn[nH]2)c1)C1(c2cccc(Cl)c2)CC1 [Example 350, 1-(3-Chlorophenyl)-N-{4-[4-(difluoromethyl)-1H-pyrazol-1-yl]-3-(1H-tetrazol-5-yl)phenyl}cyclopro-panecarboxa-mide] | – | 804 |
| O=C(Nc1ccc(-c2cc(F)cc(C(F)(F)F)c2)c(-c2nnn[nH]2)c1)C1(c2cccc(Cl)c2)CC1 [Example 130, 1-(3-chlorophenyl)-N-[3′-fluoro-2-(1H-tetrazol-5-yl)-5′-(trifluoromethyl)biphenyl-4-yl]cyclopropane carboxamide] | – | 362 |
| CCOc1ccc(-c2ccc(NC(=O)C3(c4ccc(Cl)nc4)CC3)cc2-c2nnn[nH]2)cn1 [Example 108, 1-(6-chloropyridin-3-yl)-N-[4-(6-ethoxypyridin-3-yl)-3-(1H-tetrazol-5-yl)phenyl] cyclopropane-carboxamide] | 338 | – |
| CCOc1ccc(-c2ccc(NC(=O)C3(C)CC3)cc2-c2nnn[nH]2)cn1 [Example 88, N-[4-(6-ethoxypyridin-3-yl)-3-(1H-tetrazol-5-yl)phenyl]-1-methyl-cyclopropane-carboxamide] | 111 | – |
| Cc1nc(C(F)(F)F)nn1-c1ccc(NC(=O)C2(c3cccc(Cl)c3)CC2)cc1-c1nnn[nH]1 [Example 359, 1-(3-chlorophenyl)-N-{4-[5-methyl-3-(trifluoromethyl)-1H-1,2,4-triazol-1-yl]-3-(1H-tetrazol-5-yl)phenyl}cyclopro-panecarboxa-mide] | – | 676 |
| O=C(Nc1ccc(-c2ccc(C(F)(F)F)nc2)c(-c2nnn[nH]2)c1)C1(c2ccc(F)cc2)CC1 [Example 204, 1-(4-fluorophenyl)-N-{3-(1H-tetrazol-5-yl)-4-[6-(trifluoromethyl)pyridin-3-yl]phenyl} cyclopropane-carboxamide] | – | 125 |
| CCOc1ccc(-c2ccc(NC(=O)C3(CC(C)C)CC3)cc2-c2nnn[nH]2)cn1 [Example 89, N-[4-(6-ethoxypyridin-3-yl)-3-(1H-tetrazol-5-yl)phenyl]-1-isobuty-l cyclopropane-carboxamide] | 615 | 541 |
| O=C(Nc1ccc(-c2ccc(C(F)F)nc2)c(-c2nnn[nH]2)c1)C1(c2ccc(Cl)c(F)c2)CC1 [Example 272, 1-(4-chloro-3-fluorophenyl)-N-{4-[6-(difluoromethyl)pyridin-3-yl]-3-(1H-tetrazol-5-yl)phenyl}cyclopro-panecarboxa-mide] | – | 4.72 |
| O=C(Nc1ccc(-c2ccc(C(F)(F)F)nc2)c(-c2nnn[nH]2)c1)C1(c2cc(F)c(F)cc2F)CC1 [Example 143, N-{3-(1H-tetrazol-5-yl)-4-[6-(trifluoromethyl)pyridin-3-yl]phenyl}-1-(2,4,5-trifluorophenyl) cyclopropane-carboxamide] | – | 144 |
| O=C(Nc1cc(-c2nnn[nH]2)c(-c2ccc(C(F)(F)F)nc2)cc1O)C1(c2cc(F)cc(Cl)c2)CC1 [Example 223, 1-(3-chloro-5-fluorophenyl)-N-{2-hydroxy-5-(1H-tetrazol-5-yl)-4-[6-(trifluoromethyl)pyridin-3-yl]phenyl} cyclopropane-carboxamide] | 84 | – |
| COCc1ccc(-c2ccc(NC(=O)C3(c4cccc(Cl)c4)CC3)cc2-c2nnn[nH]2)cc1C [Example 124, 1-(3-chlorophenyl)-N-[4′-(methoxymethyl)-3′-methyl-2-(1H-tetrazol-5-yl)biphenyl-4-yl]cyclopropane carboxamide] | 38.3 | – |
| N#Cc1ncc(-c2ccc(NC(=O)C3(c4cccc(Cl)c4)CC3)cc2-c2nnn[nH]2)cn1 [Example 334, 1-(3-chlorophenyl)-N-[4-(2-cyanopyrimidin-5-yl)-3-(1H-tetrazol-5-yl)phenyl]cyclopro-panecarboxa-mide] | 936 | 99.8 |
| CCOc1ncc(-c2ccc(NC(=O)C3(c4ccc(F)cc4F)CC3)cc2-c2nnn[nH]2)cc1F [Example 165, 1-(2,4-difluorophenyl)-N-[4-(6-ethoxy-5-fluoropyridin-3-yl)-3-(1H-tetrazol-5-yl)phenyl] cyclopropane-carboxamide] | 64.1 | – |
| O=C(Nc1ccc(-n2cc(C(F)(F)F)nn2)c(-c2nnn[nH]2)c1)C1(c2ccc(C(F)(F)F)cc2F)CC1 [Example 361, 1-[2-fluoro-4-(trifluoromethyl)phenyl]-N-{3-(1H-tetrazol-5-yl)-4-[4-(trifluoromethyl)-1H-1,2,3-triazol-1-yl]phenyl}cyclopro-panecarboxa-mide] | – | 419 |
| COc1ccc(-c2ccc(NC(=O)C3(c4ccc(F)c(F)c4)CC3)cc2-c2nnn[nH]2)cc1OC [Example 25, 1-(3,4-difluorophenyl)-N-[3′,4′-dimethoxy-2-(1H-tetrazol-5-yl)biphenyl-4-yl]cyclopropane-carboxamide] | 57.4 | 25.9 |
| CCOc1ccc(-c2ccc(NC(=O)C3(c4cccc(F)c4C)CC3)cc2-c2nnn[nH]2)cn1 [Example 256, N-[4-(6-ethoxypyridin-3-yl)-3-(1H-tetrazol-5-yl)phenyl]-1-(3-fluoro-2-methylphenyl)cy-clopropanecar-boxamide] | 274 | 288 |
| N#Cc1cc(F)cc(-c2ccc(NC(=O)C3(c4cccc(Cl)c4)CC3)cc2-c2nnn[nH]2)c1 [Example 337, 1-(3-chlorophenyl)-N-[3′-cyano-5′-fluoro-2-(1H-tetrazol-5-yl)biphenyl-4-yl]cyclopropane carboxamide] | 2030 | – |
| COc1ccc(-c2ccc(NC(=O)C3(c4ccccc4F)CC3(C)C)cc2-c2nnn[nH]2)cc1OC (stereo not shown) [Example 8, N-[3′,4′-dimethoxy-2-(1H-tetrazol-5-yl)biphenyl-4-yl]-1-(2-fluorophenyl)-2,2-dimethylcyclo-propane-carboxamide] | 347 | 337 |
